Results taken from ChEMBL document CHEMBL5465560, “Selectivity Literature for EUbOPEN Chemogenomic Library” (2024).
pKd: −log10 of the molar value.

Legend:
[1] = target: T1, Serine/threonine-protein kinase DCLK1 (Homo sapiens) (UniProt O15075); assay: Selectivity interaction (KinomeScan (DiscoverX)) EUB0001049a DCLK1; conditions: at 1 µM
T1 sequence (whole entry): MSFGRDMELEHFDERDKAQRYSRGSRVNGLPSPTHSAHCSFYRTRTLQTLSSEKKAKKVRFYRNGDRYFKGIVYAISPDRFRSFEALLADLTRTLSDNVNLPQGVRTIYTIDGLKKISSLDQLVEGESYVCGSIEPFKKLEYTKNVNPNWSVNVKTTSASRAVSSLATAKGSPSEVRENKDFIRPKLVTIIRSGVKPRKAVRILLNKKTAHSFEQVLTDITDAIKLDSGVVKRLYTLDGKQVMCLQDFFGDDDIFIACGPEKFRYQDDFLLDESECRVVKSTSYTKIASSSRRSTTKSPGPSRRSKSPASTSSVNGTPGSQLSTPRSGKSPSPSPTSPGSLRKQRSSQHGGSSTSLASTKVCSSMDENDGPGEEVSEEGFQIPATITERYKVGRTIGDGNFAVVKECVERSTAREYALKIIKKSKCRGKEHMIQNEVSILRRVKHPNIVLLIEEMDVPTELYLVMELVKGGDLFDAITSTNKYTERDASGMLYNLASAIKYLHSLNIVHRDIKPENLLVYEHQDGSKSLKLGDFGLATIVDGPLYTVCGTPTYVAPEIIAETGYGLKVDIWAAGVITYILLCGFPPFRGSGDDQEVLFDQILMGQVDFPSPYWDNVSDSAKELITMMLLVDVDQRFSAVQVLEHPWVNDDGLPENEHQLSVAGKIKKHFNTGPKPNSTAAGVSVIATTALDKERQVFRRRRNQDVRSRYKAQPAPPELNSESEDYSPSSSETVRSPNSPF

[2] = target: Tyrosine-protein kinase ABL2 (Homo sapiens, UniProt P42684); assay: Selectivity interaction (Millipore kinase profiler) EUB0000124b ABL2; conditions: at 10 µM
[3] = target: Ribosomal protein S6 kinase alpha-1 (Homo sapiens, UniProt Q15418); assay: Selectivity interaction (KinomeScan (DiscoverX)) EUB0000666a RPS6KA1; conditions: at 10 µM
[4] = target: Serine/threonine-protein kinase Nek6 (Homo sapiens) (UniProt Q9HC98); assay: Selectivity interaction (KinomeScan (DiscoverX)) EUB0000229b NEK6; conditions: at 10 µM
SRSF protein kinase 1 = SRSF protein kinase 1 (Homo sapiens, UniProt Q96SB4); assay: Selectivity interaction (KinomeScan (DiscoverX)) EUB0000229b SRPK1; conditions: at 10 µM
[5] = target: Serine/threonine-protein kinase PAK 4 (Homo sapiens, UniProt O96013); assay: Selectivity interaction (KinomeScan (DiscoverX)) EUB0001079a PAK4; conditions: at 1 µM
[6] = target: T2, Serine/threonine-protein kinase tousled-like 1 (Homo sapiens) (UniProt Q9UKI8); assay: Selectivity interaction (KinomeScan (DiscoverX)) EUB0001079a TLK1; conditions: at 1 µM
T2 sequence (whole entry): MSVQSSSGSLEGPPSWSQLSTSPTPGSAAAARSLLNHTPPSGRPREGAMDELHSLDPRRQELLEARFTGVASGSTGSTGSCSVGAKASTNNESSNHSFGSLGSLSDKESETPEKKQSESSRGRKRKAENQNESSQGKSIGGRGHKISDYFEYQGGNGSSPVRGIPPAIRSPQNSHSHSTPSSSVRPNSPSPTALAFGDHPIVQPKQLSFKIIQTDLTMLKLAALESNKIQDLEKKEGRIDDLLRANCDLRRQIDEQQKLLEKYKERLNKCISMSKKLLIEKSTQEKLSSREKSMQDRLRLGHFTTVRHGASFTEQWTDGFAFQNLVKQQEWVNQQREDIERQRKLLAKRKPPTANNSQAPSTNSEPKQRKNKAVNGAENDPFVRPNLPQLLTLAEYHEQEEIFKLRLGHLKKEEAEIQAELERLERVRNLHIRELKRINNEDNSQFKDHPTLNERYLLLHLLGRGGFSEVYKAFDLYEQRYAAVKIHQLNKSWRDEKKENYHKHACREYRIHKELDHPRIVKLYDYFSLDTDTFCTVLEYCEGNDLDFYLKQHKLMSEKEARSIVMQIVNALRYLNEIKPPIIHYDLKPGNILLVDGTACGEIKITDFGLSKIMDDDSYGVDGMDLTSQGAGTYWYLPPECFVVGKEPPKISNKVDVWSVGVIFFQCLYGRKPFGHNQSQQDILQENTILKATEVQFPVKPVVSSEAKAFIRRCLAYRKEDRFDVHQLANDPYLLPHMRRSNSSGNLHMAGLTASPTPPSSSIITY

[7] = target: T3, SNF-related serine/threonine-protein kinase (Homo sapiens) (UniProt Q9NRH2); assay: Selectivity interaction (KinomeScan (DiscoverX)) EUB0000595a SNRK; conditions: at 10 µM
T3 sequence (whole entry): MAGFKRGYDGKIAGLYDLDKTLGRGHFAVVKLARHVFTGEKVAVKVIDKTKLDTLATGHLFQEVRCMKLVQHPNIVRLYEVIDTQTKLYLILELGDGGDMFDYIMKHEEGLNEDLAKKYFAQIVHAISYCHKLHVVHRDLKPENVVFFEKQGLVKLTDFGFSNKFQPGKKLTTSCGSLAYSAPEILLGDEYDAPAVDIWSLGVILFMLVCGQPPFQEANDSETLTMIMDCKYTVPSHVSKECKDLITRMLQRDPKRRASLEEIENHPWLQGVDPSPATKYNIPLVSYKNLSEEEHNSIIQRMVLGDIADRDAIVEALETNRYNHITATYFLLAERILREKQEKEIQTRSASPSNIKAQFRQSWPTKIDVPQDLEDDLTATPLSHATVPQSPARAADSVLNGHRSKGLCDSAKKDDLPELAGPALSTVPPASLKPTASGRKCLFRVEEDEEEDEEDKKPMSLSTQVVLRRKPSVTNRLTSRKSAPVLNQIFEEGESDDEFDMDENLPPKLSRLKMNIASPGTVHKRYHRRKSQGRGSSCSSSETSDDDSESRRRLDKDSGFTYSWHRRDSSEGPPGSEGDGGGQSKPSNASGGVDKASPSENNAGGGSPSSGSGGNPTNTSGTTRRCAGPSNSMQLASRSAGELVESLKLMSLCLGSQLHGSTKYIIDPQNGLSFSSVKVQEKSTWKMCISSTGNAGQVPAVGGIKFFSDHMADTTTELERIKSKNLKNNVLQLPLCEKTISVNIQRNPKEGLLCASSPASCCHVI

[8] = system: Hepatocyte growth factor receptor (Homo sapiens), P08581 [M1250T]; assay: Selectivity interaction (KinomeScan (DiscoverX)) EUB0000092b MET; conditions: at 10 µM
[9] = target: Casein kinase I isoform gamma-2 (Homo sapiens) (UniProt P78368); assay: Selectivity interaction (KinomeScan (DiscoverX)) EUB0000045b CSNK1G2
[10] = target: Cyclin-dependent kinase 7 (Homo sapiens, UniProt P50613); assay: Selectivity interaction (KINOMEscan (DiscoverX, competition-binding assay)) EUB0001868a CDK7
[11] = target: Macrophage colony-stimulating factor 1 receptor (Homo sapiens) (UniProt P07333); assay: Selectivity interaction (Kinase panel (Z-LYTE Assay)) EUB0001632a CSF1R; conditions: at 10 µM

Sequence of Casein kinase I isoform gamma-2 (Homo sapiens) (P78368 whole entry, looked up, canonical isoform): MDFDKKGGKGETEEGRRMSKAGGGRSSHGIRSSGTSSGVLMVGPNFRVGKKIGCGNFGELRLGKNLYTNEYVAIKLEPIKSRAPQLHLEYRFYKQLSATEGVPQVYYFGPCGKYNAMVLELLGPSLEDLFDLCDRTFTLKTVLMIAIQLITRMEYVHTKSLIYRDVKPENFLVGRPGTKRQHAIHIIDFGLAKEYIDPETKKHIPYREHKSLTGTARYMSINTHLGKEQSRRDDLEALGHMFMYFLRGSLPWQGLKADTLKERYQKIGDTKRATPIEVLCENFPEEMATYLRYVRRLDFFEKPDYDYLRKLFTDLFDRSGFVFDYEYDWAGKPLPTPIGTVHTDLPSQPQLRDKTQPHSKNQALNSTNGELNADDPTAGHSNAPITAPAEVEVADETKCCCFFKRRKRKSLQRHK
Sequence of Cyclin-dependent kinase 7 (P50613 whole entry): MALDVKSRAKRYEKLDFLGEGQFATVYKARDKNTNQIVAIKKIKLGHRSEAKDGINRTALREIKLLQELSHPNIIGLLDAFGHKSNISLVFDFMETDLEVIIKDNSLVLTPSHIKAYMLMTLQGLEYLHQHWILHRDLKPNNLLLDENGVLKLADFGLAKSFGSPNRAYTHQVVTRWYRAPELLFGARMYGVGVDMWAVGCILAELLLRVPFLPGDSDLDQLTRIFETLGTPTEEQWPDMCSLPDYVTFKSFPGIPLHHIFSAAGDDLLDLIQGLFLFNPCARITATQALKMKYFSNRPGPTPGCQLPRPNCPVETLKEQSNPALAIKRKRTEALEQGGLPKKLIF
Sequence of Ribosomal protein S6 kinase alpha-1 (Q15418 whole entry): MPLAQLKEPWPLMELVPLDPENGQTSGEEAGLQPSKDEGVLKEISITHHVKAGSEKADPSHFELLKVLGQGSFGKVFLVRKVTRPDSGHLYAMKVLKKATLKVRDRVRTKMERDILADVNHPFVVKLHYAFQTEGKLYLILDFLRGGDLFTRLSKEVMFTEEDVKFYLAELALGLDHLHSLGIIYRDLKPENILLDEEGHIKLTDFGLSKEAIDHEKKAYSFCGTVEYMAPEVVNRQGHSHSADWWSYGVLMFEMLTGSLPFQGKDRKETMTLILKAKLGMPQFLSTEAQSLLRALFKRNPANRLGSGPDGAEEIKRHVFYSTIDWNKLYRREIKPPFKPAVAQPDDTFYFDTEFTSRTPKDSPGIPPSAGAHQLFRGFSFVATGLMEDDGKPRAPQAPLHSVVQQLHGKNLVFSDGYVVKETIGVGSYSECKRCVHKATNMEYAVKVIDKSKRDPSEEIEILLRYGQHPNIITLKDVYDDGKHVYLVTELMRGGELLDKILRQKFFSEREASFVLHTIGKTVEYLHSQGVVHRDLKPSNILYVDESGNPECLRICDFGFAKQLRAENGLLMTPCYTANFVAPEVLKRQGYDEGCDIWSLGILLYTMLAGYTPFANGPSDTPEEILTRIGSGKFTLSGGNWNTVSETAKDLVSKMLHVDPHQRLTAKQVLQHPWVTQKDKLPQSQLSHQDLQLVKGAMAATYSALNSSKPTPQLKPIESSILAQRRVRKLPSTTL
Sequence of Tyrosine-protein kinase ABL2 (P42684 whole entry): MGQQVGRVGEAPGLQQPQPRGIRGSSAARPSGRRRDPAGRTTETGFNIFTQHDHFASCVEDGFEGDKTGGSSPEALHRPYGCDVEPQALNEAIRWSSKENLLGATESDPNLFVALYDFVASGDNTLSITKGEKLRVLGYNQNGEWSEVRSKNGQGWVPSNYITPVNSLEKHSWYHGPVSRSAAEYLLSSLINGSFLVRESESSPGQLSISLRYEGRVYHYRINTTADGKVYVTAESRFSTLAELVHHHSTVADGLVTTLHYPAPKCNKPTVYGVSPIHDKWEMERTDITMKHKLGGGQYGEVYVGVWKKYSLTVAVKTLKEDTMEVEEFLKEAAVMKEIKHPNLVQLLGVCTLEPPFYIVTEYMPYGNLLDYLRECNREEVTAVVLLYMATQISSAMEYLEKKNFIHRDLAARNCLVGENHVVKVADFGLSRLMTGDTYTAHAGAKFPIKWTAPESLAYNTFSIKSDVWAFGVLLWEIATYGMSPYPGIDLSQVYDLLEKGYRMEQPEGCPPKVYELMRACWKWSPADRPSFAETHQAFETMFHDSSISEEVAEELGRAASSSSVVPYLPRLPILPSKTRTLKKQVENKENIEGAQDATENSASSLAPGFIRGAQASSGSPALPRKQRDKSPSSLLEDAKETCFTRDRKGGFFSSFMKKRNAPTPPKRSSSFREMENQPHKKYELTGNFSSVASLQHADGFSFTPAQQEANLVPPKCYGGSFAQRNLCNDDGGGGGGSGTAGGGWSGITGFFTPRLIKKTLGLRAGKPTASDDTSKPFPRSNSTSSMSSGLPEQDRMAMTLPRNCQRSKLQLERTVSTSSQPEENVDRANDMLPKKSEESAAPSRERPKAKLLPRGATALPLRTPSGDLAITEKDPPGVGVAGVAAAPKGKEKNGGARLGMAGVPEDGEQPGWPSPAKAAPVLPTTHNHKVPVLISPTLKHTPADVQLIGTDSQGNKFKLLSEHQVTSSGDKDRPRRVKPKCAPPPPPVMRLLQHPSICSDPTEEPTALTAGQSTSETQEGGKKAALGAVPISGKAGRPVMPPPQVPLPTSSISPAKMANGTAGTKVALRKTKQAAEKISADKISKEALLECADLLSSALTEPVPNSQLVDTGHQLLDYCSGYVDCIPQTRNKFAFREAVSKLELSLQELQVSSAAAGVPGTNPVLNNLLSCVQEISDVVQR
Sequence of Serine/threonine-protein kinase Nek6 (Homo sapiens) (Q9HC98 whole entry): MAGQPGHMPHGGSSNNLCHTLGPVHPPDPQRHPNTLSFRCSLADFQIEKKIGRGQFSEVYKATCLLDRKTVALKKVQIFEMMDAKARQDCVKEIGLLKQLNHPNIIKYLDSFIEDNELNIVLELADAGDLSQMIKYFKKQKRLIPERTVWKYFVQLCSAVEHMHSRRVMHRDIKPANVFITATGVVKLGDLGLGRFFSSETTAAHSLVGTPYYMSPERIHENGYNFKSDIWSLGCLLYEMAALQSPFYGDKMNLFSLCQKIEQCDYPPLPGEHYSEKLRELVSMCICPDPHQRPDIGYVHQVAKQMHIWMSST
Sequence of Serine/threonine-protein kinase PAK 4 (O96013 whole entry, looked up): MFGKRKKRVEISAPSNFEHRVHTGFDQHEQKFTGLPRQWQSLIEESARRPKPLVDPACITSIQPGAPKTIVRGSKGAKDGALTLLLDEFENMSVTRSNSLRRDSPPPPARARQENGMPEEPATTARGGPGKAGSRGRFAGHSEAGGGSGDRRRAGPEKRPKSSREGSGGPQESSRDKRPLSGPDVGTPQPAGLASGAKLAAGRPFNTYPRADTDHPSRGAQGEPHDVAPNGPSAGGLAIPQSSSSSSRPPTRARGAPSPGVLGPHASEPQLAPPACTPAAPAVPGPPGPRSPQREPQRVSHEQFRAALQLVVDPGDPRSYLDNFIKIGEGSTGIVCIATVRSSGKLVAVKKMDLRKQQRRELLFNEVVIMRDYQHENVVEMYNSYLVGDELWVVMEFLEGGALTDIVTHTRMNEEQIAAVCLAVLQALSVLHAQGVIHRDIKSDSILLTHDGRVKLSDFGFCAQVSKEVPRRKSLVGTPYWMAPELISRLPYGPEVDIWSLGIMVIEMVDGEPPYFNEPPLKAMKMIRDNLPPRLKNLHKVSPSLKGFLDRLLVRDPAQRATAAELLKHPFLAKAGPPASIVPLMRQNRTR
Sequence of SRSF protein kinase 1 (Q96SB4 whole entry): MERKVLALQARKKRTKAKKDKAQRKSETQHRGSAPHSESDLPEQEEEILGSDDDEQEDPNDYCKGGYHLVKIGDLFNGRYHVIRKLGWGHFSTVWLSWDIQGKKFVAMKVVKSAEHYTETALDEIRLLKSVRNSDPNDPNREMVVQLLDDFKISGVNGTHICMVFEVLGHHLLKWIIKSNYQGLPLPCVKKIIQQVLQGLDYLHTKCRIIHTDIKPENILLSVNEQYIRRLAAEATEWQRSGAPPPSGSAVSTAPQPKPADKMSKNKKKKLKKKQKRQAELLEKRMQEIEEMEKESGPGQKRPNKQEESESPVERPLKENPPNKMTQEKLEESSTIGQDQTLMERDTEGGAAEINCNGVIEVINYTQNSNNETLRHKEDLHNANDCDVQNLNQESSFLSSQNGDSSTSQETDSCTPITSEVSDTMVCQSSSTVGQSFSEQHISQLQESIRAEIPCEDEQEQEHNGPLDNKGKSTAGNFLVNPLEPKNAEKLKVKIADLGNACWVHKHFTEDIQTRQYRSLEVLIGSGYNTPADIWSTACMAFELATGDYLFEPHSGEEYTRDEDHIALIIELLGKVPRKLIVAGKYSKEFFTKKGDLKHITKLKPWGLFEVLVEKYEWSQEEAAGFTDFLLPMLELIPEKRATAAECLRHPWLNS

For COc1cc(Nc2nc(C)cc(-c3cnn4nc(OC)ccc34)n2)cc(C(F)(F)F)c1, the % of control [1] was 69%.
For CC(=O)Nc1cccc(-n2c(=O)n(C3CC3)c(=O)c3c(Nc4ccc(I)cc4F)n(C)c(=O)c(C)c32)c1, the % of control [2] was 111%.
For O=C(NOC[C@H](O)CO)c1ccc(F)c(F)c1Nc1ccc(I)cc1F, the % of control [3] was 100%.
Molecule COc1cc(N(C)c2ccnc3ccc(C(F)(F)F)cc23)cc(OC)c1OC has a % binding [4] of 100% and a % binding (SRSF protein kinase 1) of 92%.
Nc1cnc(N2CCc3cc(S(=O)(=O)Nc4c(F)cc(Cl)cc4F)cc(N4CCCC4=O)c32)nc1 [TP-020n] showed a % of control [5] of 89% and a % of control [6] of 100%.
COCC(=O)NC/C=C/c1ccc2ncnc(Nc3ccc(Oc4ccc(C)nc4)c(C)c3)c2c1 [CP-724714] showed a % of control [7] of 71%.
In the case of CCC(=O)N1CCN(c2ccc(-n3c(=O)ccc4cnc5ccc(-c6cnc7ccccc7c6)cc5c43)cc2C(F)(F)F)CC1, the % of control [8] was 79%.
Molecule C=CC(=O)Nc1cc(-n2c(=O)ccc3cnc4ccc(-c5ccc(NS(C)(=O)=O)cc5)cc4c32)ccc1C has a % of control ([9]; at 1 µM) of 100% and a % of control ([9]; at 10 µM) of 62%.
For Cc1cc(-c2ccnc(Nc3cnn(C)c3)n2)ccc1CNC(=O)N1CC(OC(C)C)C1, the pKd [10] was 6.06.
Cn1cc(-n2cnc3c(NCc4nc5cc(Cl)c(Cl)cc5[nH]4)nc(N4CCOCC4)nc32)cn1 showed a % of control [11] of 20%.
